Reference: the NIST ThermoML archive (doi:10.1021/je1005517)
Numbers after ± are expanded uncertainties.

Experiment: activity coefficient (dimensionless); of the first substance listed, at infinite dilution; xn = mol fraction of the nth substance listed
Conditions: Liquid, GC, x1 = 0

Row | Structure (SMILES) | activity coefficient (338.15 K, 101 kPa) | activity coefficient (343.15 K, 101 kPa) | activity coefficient (348.15 K, 101 kPa) | activity coefficient (353.15 K, 101 kPa) | activity coefficient (333.15 K, 101.3 kPa) | activity coefficient (338.15 K, 101.3 kPa) | activity coefficient (343.15 K, 101.3 kPa) | activity coefficient (348.15 K, 101.3 kPa) | activity coefficient (353.15 K, 101.3 kPa) | activity coefficient (333.15 K, 101 kPa)
1 | CCO [ethanol] + CCCCCCCCCCCCCCCCCCCCO | 0.124 ± 0.0075 | 0.117 ± 0.007 | 0.106 ± 0.0063 | 0.095 ± 0.0057 |  |  |  |  |  | 
2 | CCO [ethanol] + CCCCCCCCCCCCCCCCCCO |  |  |  |  | 0.0433 ± 0.0026 | 0.0396 ± 0.0024 | 0.0369 ± 0.0022 | 0.0343 ± 0.0021 | 0.032 ± 0.002 | 
3 | CCOC(C)=O [ethyl acetate] + CCCCCCCCCCCCCCCCCCCCO | 0.123 ± 0.0074 | 0.11 ± 0.0066 | 0.099 ± 0.0059 | 0.0888 ± 0.0053 |  |  |  |  |  | 
4 | CCOC(C)=O [ethyl acetate] + CCCCCCCCCCCCCCCCCCO |  |  |  |  | 0.0445 ± 0.0027 | 0.0408 ± 0.0024 | 0.0384 ± 0.0023 | 0.036 ± 0.0022 | 0.0335 ± 0.002 | 
5 | CCCCCC [hexane] + CCCCCCCCCCCCCCCCCCCCO | 0.129 ± 0.0077 | 0.124 ± 0.0074 | 0.119 ± 0.0072 | 0.115 ± 0.0069 |  |  |  |  |  | 
6 | CCCCCC [hexane] + CCCCCCCCCCCCCCCCCCO | 0.0468 ± 0.0028 | 0.0411 ± 0.0025 | 0.0359 ± 0.0022 | 0.0315 ± 0.0019 |  |  |  |  |  | 0.0551 ± 0.0033
7 | CO [methanol] + CCCCCCCCCCCCCCCCCCCCO | 0.122 ± 0.0073 | 0.0967 ± 0.0058 | 0.0737 ± 0.0044 | 0.0574 ± 0.0034 |  |  |  |  |  | 
8 | CO [methanol] + CCCCCCCCCCCCCCCCCCO | 0.0386 ± 0.0023 | 0.0357 ± 0.0021 | 0.033 ± 0.002 | 0.0306 ± 0.0018 |  |  |  |  |  | 0.0423 ± 0.0025
9 | CCCCCCCC [octane] + CCCCCCCCCCCCCCCCCCCCO | 0.187 ± 0.011 | 0.161 ± 0.0096 | 0.138 ± 0.0083 | 0.12 ± 0.0072 |  |  |  |  |  | 
10 | CCCCCCCC [octane] + CCCCCCCCCCCCCCCCCCO | 0.0497 ± 0.003 | 0.0485 ± 0.0029 | 0.0473 ± 0.0028 | 0.0461 ± 0.0028 |  |  |  |  |  | 0.0513 ± 0.0031
11 | CCCCC [pentane] + CCCCCCCCCCCCCCCCCCCCO | 0.0954 ± 0.0057 | 0.0801 ± 0.0048 | 0.0668 ± 0.004 | 0.0564 ± 0.0034 |  |  |  |  |  | 
12 | CCCCC [pentane] + CCCCCCCCCCCCCCCCCCO | 0.0272 ± 0.0016 | 0.0259 ± 0.0016 | 0.0243 ± 0.0015 | 0.0231 ± 0.0014 |  |  |  |  |  | 0.0292 ± 0.0018
13 | CCCO [propan-1-ol] + CCCCCCCCCCCCCCCCCCCCO | 0.213 ± 0.013 | 0.193 ± 0.012 | 0.175 ± 0.011 | 0.159 ± 0.0095 |  |  |  |  |  | 
14 | CCCO [propan-1-ol] + CCCCCCCCCCCCCCCCCCO |  |  |  |  | 0.0722 ± 0.0043 | 0.0625 ± 0.0038 | 0.0597 ± 0.0036 | 0.055 ± 0.003 | 0.051 ± 0.003 | 
15 | ClC(Cl)(Cl)Cl [tetrachloromethane] + CCCCCCCCCCCCCCCCCCCCO | 0.0862 ± 0.0052 | 0.081 ± 0.0049 | 0.076 ± 0.0046 | 0.0714 ± 0.0043 |  |  |  |  |  | 
16 | ClC(Cl)(Cl)Cl [tetrachloromethane] + CCCCCCCCCCCCCCCCCCO | 0.0285 ± 0.0017 | 0.0283 ± 0.0017 | 0.028 ± 0.0017 | 0.0278 ± 0.0017 |  |  |  |  |  | 0.0288 ± 0.0017
17 | C1CCOC1 [tetrahydrofuran] + CCCCCCCCCCCCCCCCCCCCO | 0.0581 ± 0.0035 | 0.0543 ± 0.0033 | 0.0506 ± 0.003 | 0.0471 ± 0.0028 |  |  |  |  |  | 
18 | C1CCOC1 [tetrahydrofuran] + CCCCCCCCCCCCCCCCCCO | 0.0188 ± 0.0011 | 0.0177 ± 0.0011 | 0.0166 ± 0.001 | 0.0156 ± 0.0009 |  |  |  |  |  | 0.0204 ± 0.0012
19 | Cc1ccccc1 [toluene] + CCCCCCCCCCCCCCCCCCCCO | 0.544 ± 0.033 | 0.479 ± 0.029 | 0.421 ± 0.025 | 0.373 ± 0.022 |  |  |  |  |  | 
20 | Cc1ccccc1 [toluene] + CCCCCCCCCCCCCCCCCCO | 0.0355 ± 0.0021 | 0.0343 ± 0.0021 | 0.0331 ± 0.002 | 0.0318 ± 0.0019 |  |  |  |  |  | 0.0372 ± 0.0022
21 | ClC(Cl)Cl [trichloromethane] + CCCCCCCCCCCCCCCCCCCCO | 0.0632 ± 0.0038 | 0.0622 ± 0.0037 | 0.0612 ± 0.0037 | 0.0604 ± 0.0036 |  |  |  |  |  | 
22 | ClC(Cl)Cl [trichloromethane] + CCCCCCCCCCCCCCCCCCO | 0.022 ± 0.0013 | 0.0214 ± 0.0013 | 0.0208 ± 0.0012 | 0.0202 ± 0.0012 |  |  |  |  |  | 0.0227 ± 0.0014
